Measurements as given in US7803801B2, “Aminopyridine compounds having Syk inhibitory activity” (Japan Tobacco, Inc., priority 2005, dated 2010).
Structures can show the parent of a compound that is named as a salt. Where two headings read alike, the source gives them in different places.

Columns and labels:
[1] = test system: cultured human mast cells; assay: Degranulation inhibition test using cultured human mast cells (IgE cross-linking, β-Hexosaminidase release); type: cell-based; conditions: Mast cell, cultured human mast cells, read-out: human degranulation ave. IC50
How it was run: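 CD34+ cord-blood cells cultured ≥8 weeks with SCF/IL-6/IL-3; FcεRI primed 5 days with rhIL-4 (1 ng/mL) and hIgE (0.5 μg/mL). Compound (0.1% DMSO) preincubated 10 min at 37 °C, then anti-IgE (final 10 μg/mL) 30 min; released β-hexosaminidase read at 405 nm versus total lysate, IC50 (M).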

[2] = target: GST-Syk Full Protein (human) (Homo sapiens, UniProt P43405); assay: Syk kinase inhibition test (HTRF method); type: biochemical
How it was run: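 Human GST-Syk full-length (6.4 nM) phosphorylated biotin-EDPDYEWPSA-NH2 (250 nM) with 100 μM ATP in HEPES pH 7.0/MgCl2 buffer, 2% DMSO, 30 min at room temperature. EDTA stop, then HTRF detection (streptavidin-XL665, Eu anti-phosphotyrosine) after 1 h; 665/620 ratio read.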

[3] = anti-hIgE stimulation, β-Hexosaminidase index, average
[4] = HTRF, 100 μM ATP, 30 min room temperature, average, read-out: sykHTRF ave IC50
[5] = Tables 2-x, thiophene compounds B
[6] = Tables 2-x, thiophene compounds B, read-out: sykHTRK ave IC50
[7] = Tables 1-x, compounds A, read-out: sykHTRF ave IC50

SMILES	IC50 [1, 3] [nM]	IC50 [2, 4] [nM]	also measured
Cc1ccnc(Nc2cccc(-c3cnc([C@H]4CC[C@H](C(=O)N5CCC(NC(=O)CO)C5)CC4)s3)n2)c1 (stereo partly shown) [Compound A-313]	100 to 1000	100 to 1000	
CC(=O)c1ccc(-c2cccc(Nc3ccc(C)cn3)n2)s1 [Compound B-76]			IC50 [1, 5]: > 1000 nM; IC50 [2, 6]: > 1000 nM
COc1ccnc(Nc2cccc(-c3cnc(N4CCOCC4)s3)n2)c1 [Compound A-422, N-(4-methoxypyridin-2-yl)-N-{6-[2-(morpholin-4-yl)thiazol-5-yl]pyridin-2-yl}amine]			IC50 ([1]; Tables 1-x, compounds A): 100 to 1000 nM; IC50 [2, 7]: < 100 nM
Cc1ccnc(Nc2cccc(-c3cnc(CN4CCC[C@H]4CO)s3)n2)c1 [Compound A-379]			IC50 ([1]; Tables 1-x, compounds A): 100 to 1000 nM; IC50 [2, 7]: 100 to 1000 nM
CC(=O)N[C@@H](C)c1ncc(-c2cccc(Nc3cc(C4(C)OCCO4)ccn3)n2)s1 [Compound A-199]	100 to 1000	100 to 1000	
Cc1ccnc(Nc2cccc(-c3cnc(N4CCN(C(=O)C5CCC(O)CC5)CC4)s3)n2)c1 (stereo not shown) [Compound A-413]			IC50 ([1]; Tables 1-x, compounds A): 100 to 1000 nM; IC50 [2, 7]: 100 to 1000 nM
CC(=O)Nc1ccc(C[C@H](NC(C)=O)c2ncc(-c3cccc(Nc4cc(C)ccn4)n3)s2)cc1 [Compound A-179]	100 to 1000	100 to 1000	
Cc1ccnc(Nc2cccc(-c3ccc([N+](=O)[O-])s3)n2)c1 [Compound B-28]			IC50 [1, 5]: > 1000 nM; IC50 [2, 6]: 100 to 1000 nM
CNC(=O)CO[C@@H]1CCN(c2ncc(-c3cccc(Nc4cc(C)ccn4)n3)s2)C1 [Compound A-516, N-methyl-2-((R)-1-{5-[6-(4-methylpyridin-2-ylamino)pyridin-2-yl]thiazol-2-yl}pyrrolidin-3-yloxy)acetamide]			IC50 ([1]; Tables 1-x, compounds A): 100 to 1000 nM; IC50 [2, 7]: < 100 nM
C/C(=N\OCCO)c1ncc(-c2cccc(Nc3cc(C)ccn3)n2)s1 [Compound A-35, 1-{5-[6-(4-methylpyridin-2-ylamino)pyridin-2-yl]thiazol-2-yl}ethanone 0-(2-hydroxyethyl)oxime]	100 to 1000	< 100	
CC(=O)OC(Cc1ccc(O)cc1)c1ncc(-c2cccc(Nc3cc(C)ccn3)n2)s1 (stereo not shown) [Compound A-366]	100 to 1000	100 to 1000	
CNC(=O)c1ccc(-c2cccc(Nc3cc(C)ccn3)n2)s1 [Compound B-11, N-methyl-5-[6-(4-methylpyridin-2-ylamino)pyridin-2-yl]thiophene-2-carboxamide]			IC50 [1, 5]: 100 to 1000 nM; IC50 [2, 6]: < 100 nM
COC(=O)[C@H]1CC[C@H](c2ncc(-c3cccc(Nc4cc5ccccc5cn4)n3)s2)CC1 [Compound A-213]	100 to 1000	> 1000	
CO/N=C(\C)c1ccc(-c2cccc(Nc3cc(OC(C)C)ncn3)n2)s1 [Compound B-33]			IC50 [1, 5]: > 1000 nM; IC50 [2, 6]: 100 to 1000 nM
COc1ccc(C[C@H](NC(C)=O)c2ncc(-c3cccc(Nc4cc(C)ccn4)n3)s2)cc1OC [Compound A-139]	> 1000	100 to 1000	
COC(=O)N1CCC(c2ncc(-c3cccc(Nc4cc(C)ccn4)n3)s2)CC1 [Compound A-170]	100 to 1000	100 to 1000	
Cc1ccnc(Nc2cccc(-c3cnc(CCc4ccc(CO)cc4)s3)n2)c1 [Compound A-159, [4-(2-{5-[6-(4-methylpyridin-2-ylamino)pyridin-2-yl]thiazol-2-yl}ethyl)phenyl]methanol]	100 to 1000	< 100	
Cc1ccnc(Nc2cccc(-c3cnc(N4CCN(C(=O)N(C)C)CC4)s3)n2)c1 [Compound A-441, N,N-dimethyl-4-{5-[6-(4-methylpyridin-2-ylamino)pyridin-2-yl]thiazol-2-yl}piperazine-1-carboxamide]			IC50 ([1]; Tables 1-x, compounds A): 100 to 1000 nM; IC50 [2, 7]: < 100 nM

SMILES	IC50 [1, 3] [nM]	IC50 [2, 4] [nM]	also measured
CC(=O)N[C@@H](Cc1ccc(NC(=O)OCc2ccccc2)cc1)c1ncc(-c2cccc(Nc3cc(C)ccn3)n2)s1 [Compound A-178]	> 1000	> 1000	
Cc1ccnc(Nc2cccc(-c3cnc(N(C)[C@H]4CC[C@@H](C(=O)O)CC4)s3)n2)c1 [Compound A-591, cis-4-(N-methyl-N-{5-[6-(4-methylpyridin-2-ylamino)pyridin-2-yl]thiazol-2-yl}amino)cyclohexanecarboxylic acid]			IC50 ([1]; Tables 1-x, compounds A): 100 to 1000 nM; IC50 [2, 7]: < 100 nM
Cc1ccnc(Nc2cccc(-c3cnc([C@H]4CC[C@H](C(=O)N5CCOCC5)CC4)s3)n2)c1 [Compound A-275]	100 to 1000	100 to 1000	
Cc1ccnc(Nc2cccc(-c3cnc(CN4CCCCC4=O)s3)n2)c1 [Compound A-401]			IC50 ([1]; Tables 1-x, compounds A): 100 to 1000 nM; IC50 [2, 7]: > 1000 nM
CC(=O)N1CCC(N(CCNS(C)(=O)=O)c2ncc(-c3cccc(Nc4cc(C)ccn4)n3)s2)CC1 [Compound A-524, N-[2-(N′-(1-acetylpiperidin-4-yl)-N′-{5-[6-(4-methylpyridin-2-ylamino)pyridin-2-yl]thiazol-2-yl}amino)ethyl]methanesulfonamide]			IC50 ([1]; Tables 1-x, compounds A): > 1000 nM; IC50 [2, 7]: < 100 nM
CC(=O)N(C)[C@H](c1ccc(O)cc1)c1ncc(-c2cccc(Nc3cc(C)ccn3)n2)s1 [Compound A-372, N—((R)-(4-hydroxyphenyl)-{5-[6-(4-methylpyridin-2-ylamino)pyridin-2-yl]thiazol-2-yl}methyl)-N-methylacetamide]	100 to 1000	< 100	
Cc1ccnc(Nc2cccc(-c3cnc(CC4CCC(O)CC4)s3)n2)c1 (stereo not shown) [Compound A-341, 4-{5-[6-(4-methylpyridin-2-ylamino)pyridin-2-yl]thiazol-2-ylmethyl}cyclohexanol]	100 to 1000	< 100	
Cc1ccnc(Nc2cccc(-c3cnc(N(C)CC(=O)NCCC(=O)O)s3)n2)c1 [Compound A-570, 3-[2-(N-methyl-N-{5-[6-(4-methylpyridin-2-ylamino)pyridin-2-yl]thiazol-2-yl}amino)acetylamino]propionic acid dihydrochloride]			IC50 ([1]; Tables 1-x, compounds A): > 1000 nM; IC50 [2, 7]: < 100 nM
CC(=O)N[C@@H](C)c1ncc(-c2cccc(Nc3cc4ccccc4cn3)n2)s1 [Compound A-91, N—((S)-1-{5-[6-(isoquinolin-3-ylamino)pyridin-2-yl]thiazol-2-yl}ethyl)acetamide]	100 to 1000	< 100	
Cc1ccnc(Nc2cccc(-c3cnc(CNC(=O)CO)s3)n2)c1 [Compound A-201]	100 to 1000	100 to 1000	
Cc1ccnc(Nc2cccc(-c3ccc(-c4cc(C)no4)s3)n2)c1 [Compound B-66]			IC50 [1, 5]: > 1000 nM; IC50 [2, 6]: 100 to 1000 nM
Cc1ccnc(Nc2cccc(-c3cnc(CN4CCC(NS(C)(=O)=O)CC4)s3)n2)c1 [Compound A-236]	100 to 1000	100 to 1000	
Cc1ccnc(Nc2cccc(-c3ccc(NC(=O)[C@H](C)O)s3)n2)c1 [Compound B-35]			IC50 [1, 5]: 100 to 1000 nM; IC50 [2, 6]: 100 to 1000 nM
CC(=O)c1ccc(-c2cccc(Nc3cc(OCCN(C)C)ccn3)n2)s1 [Compound B-82]			IC50 [1, 5]: 100 to 1000 nM; IC50 [2, 6]: 100 to 1000 nM
COc1ccnc(Nc2cccc(-c3cnc([C@H](C)N)s3)n2)c1 [Compound A-76]	100 to 1000	100 to 1000	
Cc1ccnc(Nc2cccc(-c3cnc([C@H](C)NC(=O)c4ccccc4)s3)n2)c1 [Compound A-348]	> 1000	100 to 1000	
Cc1ccnc(Nc2cccc(-c3cnc(CCc4ccc(C(=O)N5C[C@@H](O)[C@@H](O)C5)cc4)s3)n2)c1 [Compound A-223, ((3R,4S)-3,4-dihydroxypyrrolidin-1-yl)-[4-(2-{5-[6-(4-methylpyridin-2-ylamino)pyridin-2-yl]thiazol-2-yl}ethyl)phenyl]methanone]	100 to 1000	< 100	
